Test [1] concerns the target PDE10A (Homo sapiens (Human), UniProt Q9Y233). The experiment in a line: Measurement of PDE10A inhibitory activity-2 (PDE10A fraction prepared from MOLT-4 cells). The format is biochemical. The note with it: PDE10A fraction from MOLT-4 cells (peak around 250 mM NaCl). The protocol: A human acute lymphoblastic lymphoma T cell line MOLT-4 (which can be purchased under ATCC No. CRL-1582 from ATCC) was cultured in an RPMI1640 medium containing 10% fetal bovine serum to obtain 5×10^8 MOLT-4 cells. The cells were recovered by centrifugation and suspended in 10 ml of buffer solution A (25 mM Tris-HCl, 5 mM 2-mercaptoethanol, 2 mM benzamidine, 2 mM EDTA, and 0.1 mM 4-(2-aminoethyl)benzenesulfonyl hydrochloride, pH 7.5). The cells were homogenized using a Polytron homogenizer and centrifuged (4° C., 25,000 g, 10 minutes). Then, the supernatant was further ultracentrifuged (4° C., 100,000 g, 60 minutes). The obtained supernatant was filtered through a 0.2 μm filter to obtain a soluble fraction.
HiTrap Q HP column (5 ml×2, GE Healthcare Japan Corp.) equilibrated with buffer solution A was charged with the obtained soluble fraction. Phosphodiesterase was eluted with 300 ml of buffer solution A containing a linear gradient solution of 0 to 0.8 M NaCl to recover sixty 5-ml fractions. Each fraction was tested for cAMP-metabolizing phosphodiesterase activity.
On the other hand, total RNA was prepared from Jurkat cells, one type of human T cell, and similarly subjected to RT-PCR. […] Eur J Biochem. 1999, 266 (3), 1118-2 has reported that PDE10A from the rat striatum and testis is eluted as an active peak centered around 250 mM NaCl.
For these reasons, this fraction was used as a solution for the evaluation of PDE10A inhibitory activity. The obtained solution was used to calculate the inhibitory activity (IC50) of a test compound in the same way as in the aforementioned test.

Test [2] has as its system Male C57BL/6 Cr mice. The experiment in a line: Test on suppression of phencyclidine-induced hyperlocomotion in mice. Type of test: in vivo, mouse. The note with it: locomotor activity, test compound 10 mg/kg oral, phencyclidine 5 mg/kg s.c. approx. 1 hour later, measured for 1 hour; for inhibition in vivo at 10 mg/kg: Mus musculus, po, 1 h. The protocol: Male C57BL/6 Cr mice (Japan SLC, Inc.) (8 weeks old) were used in the experiment. A test compound was suspended at 1 mg/mL in a 0.5% hydroxypropylcellulose solution to prepare a suspension for administration. The suspension of the test compound or a solvent (0.5% hydroxypropylcellulose solution) was orally administered at a dose of 10 mL/kg to each mouse. After the administration, the mouse was immediately placed in a locomotor activity measurement apparatus (Muromachi Kikai Co., Ltd., locomotor activity measurement system SUPERMEX). Approximately 1 hour later, phencyclidine (5 mg/10 mL/kg) or a solvent (10 mL/kg saline) was subcutaneously administered to the mouse. The locomotor activity was measured from immediately after the subcutaneous administration to 1 hour later.
Percent inhibition exceeding 100 means that when the activity of the phencyclidine administration control group was defined as 100, the activity of the group given a test compound was lower than that of the solvent administration control group.

SMILES strings stand for the structures. Structures can show the parent of a compound that is named as a salt.

Sequence of PDE10A (Q9Y233 whole entry): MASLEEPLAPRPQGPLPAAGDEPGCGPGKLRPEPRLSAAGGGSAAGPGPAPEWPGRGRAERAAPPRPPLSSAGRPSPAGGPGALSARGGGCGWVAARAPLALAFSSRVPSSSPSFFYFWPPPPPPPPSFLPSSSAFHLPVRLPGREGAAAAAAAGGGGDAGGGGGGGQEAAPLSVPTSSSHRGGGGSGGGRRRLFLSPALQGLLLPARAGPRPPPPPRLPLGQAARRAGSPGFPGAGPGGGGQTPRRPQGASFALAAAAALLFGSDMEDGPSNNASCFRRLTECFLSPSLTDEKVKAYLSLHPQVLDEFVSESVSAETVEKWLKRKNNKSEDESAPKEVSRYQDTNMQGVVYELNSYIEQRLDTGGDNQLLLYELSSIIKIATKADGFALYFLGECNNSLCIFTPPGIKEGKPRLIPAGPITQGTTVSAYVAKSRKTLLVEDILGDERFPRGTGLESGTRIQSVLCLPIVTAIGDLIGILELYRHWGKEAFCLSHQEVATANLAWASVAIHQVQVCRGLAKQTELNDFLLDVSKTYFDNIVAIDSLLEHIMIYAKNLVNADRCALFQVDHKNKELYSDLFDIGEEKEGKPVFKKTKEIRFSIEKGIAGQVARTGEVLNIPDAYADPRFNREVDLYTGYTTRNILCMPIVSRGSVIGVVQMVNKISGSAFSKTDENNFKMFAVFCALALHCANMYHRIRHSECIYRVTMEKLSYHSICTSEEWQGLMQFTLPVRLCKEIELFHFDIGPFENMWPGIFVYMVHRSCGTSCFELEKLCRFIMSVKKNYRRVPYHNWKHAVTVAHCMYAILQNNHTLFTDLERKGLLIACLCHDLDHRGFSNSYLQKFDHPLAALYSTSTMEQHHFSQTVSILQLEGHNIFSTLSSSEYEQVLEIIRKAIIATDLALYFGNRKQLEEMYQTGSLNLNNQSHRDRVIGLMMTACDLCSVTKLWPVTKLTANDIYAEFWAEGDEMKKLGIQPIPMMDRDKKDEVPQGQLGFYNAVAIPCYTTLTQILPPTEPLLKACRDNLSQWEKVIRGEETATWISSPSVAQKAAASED

In test [1], `COCc1ccc(C(C)=O)c2sc(C(=O)Nc3ccc4c(COCCO)cccc4n3)c(C)c12` [Example 72, 7-Acetyl-N-(5-((2-hydroxyethoxy)methyl)quinolin-2-yl)-4-(methoxymethyl)-3-methylbenzo[b]thiophene-2-carboxamide hydrochloride] had an IC50 of 0.54 nM. In addition, the inhibition in vivo at 10 mg/kg in test [2] came to 83%.
For `COCc1ccc(C(C)=O)c2sc(C(=O)Nc3cc(CN4CCC(O)CC4)c4ccccc4n3)c(C)c12` [Example 36, 7-Acetyl-N-(4-((4-hydroxypiperidin-1-yl)methyl)quinolin-2-yl)-4-(methoxymethyl)-3-methylbenzo[b]thiophene-2-carboxamide] the same measures were 0.35 nM and 69%.
For `COCc1ccc(C(C)=O)c2sc(C(=O)Nc3cc(N)c4ccccc4n3)c(C)c12` [Example 54, 7-Acetyl-N-(4-aminoquinolin-2-yl)-4-(methoxymethyl)-3-methylbenzo[b]thiophene-2-carboxamide], in that order: 0.054 nM and 68%.
For `COCc1ccc(C(C)=O)c2sc(C(=O)Nc3cc(C(C)(C)O)c4ccccc4n3)c(C)c12` [Example 26, 7-Acetyl-N-(4-(2-hydroxypropan-2-yl)quinolin-2-yl)-4-(methoxymethyl)-3-methylbenzo[b]thiophene-2-carboxamide] the same measures were 1.8 nM and 84%.
As to `COCc1ccc(C(C)=O)c2sc(C(=O)Nc3ccc4ccccc4n3)c(C)c12` [Example 49, 7-Acetyl-4-(methoxymethyl)-3-methyl-N-(quinolin-2-yl)benzo[b]thiophene-2-carboxamide], the inhibition in vivo at 10 mg/kg in test [2] was determined as 104%.
Turning to `COCc1ccc(C(C)=O)c2sc(C(=O)Nc3ccc4c(CN5CC(OC)C5)cccc4n3)c(C)c12` [Example 66, 7-Acetyl-N-(5-((3-methoxyazetidin-1-yl)methyl)quinolin-2-yl)-4-(methoxymethyl)-3-methylbenzo[b]thiophene-2-carboxamide], the IC50 in test [1] turned out to be 1.2 nM. Besides, in test [2], the inhibition in vivo at 10 mg/kg turned out to be 91%.
For `COCc1ccc(C(C)=O)c2sc(C(=O)Nc3ccc4c(C(=O)N(C)C)cccc4n3)c(C)c12` [Example 97, 2-(7-Acetyl-4-(methoxymethyl)-3-methylbenzo[b]thiophene-2-carboxamido)-N,N-dimethylquinoline-5-carboxamide], the IC50 in test [1] worked out at 0.26 nM. Also, the inhibition in vivo at 10 mg/kg in test [2] came to 50%.
For `COCc1ccc(C(C)=O)c2sc(C(=O)Nc3cc(N4CCN(C)CC4)c4ccccc4n3)c(C)c12` [Example 57, 7-Acetyl-4-(methoxymethyl)-3-methyl-N-(4-(4-methylpiperazin-1-yl)quinolin-2-yl)benzo[b]thiophene-2-carboxamide] the same measures were 1.6 nM and 86%.
For `COCc1ccc(C(C)=O)c2sc(C(=O)Nc3cc(CN4CC[C@@H](F)C4)c4ccccc4n3)c(C)c12` [Example 45, (R)-7-Acetyl-N-(4-((3-fluoropyrrolidin-1-yl)methyl)quinolin-2-yl)-4-(methoxymethyl)-3-methylbenzo[b]thiophene-2-carboxamide] the same measures were 0.5 nM and 97%.
In turn, `COCc1ccc(C(C)=O)c2sc(C(=O)Nc3ccc4c(COP(=O)(O)O)cccc4n3)c(C)c12` [Example 87, (2-(7-Acetyl-4-(methoxymethyl)-3-methylbenzo[b]thiophene-2-carboxamido)quinolin-5-yl)methyl dihydrogen phosphate hydrochloride] gave an IC50 in test [1] of 0.6 nM. Also, the inhibition in vivo at 10 mg/kg in test [2] came out at 92%.
For `COCc1ccc(C(=O)C(C)C)c2sc(C(=O)Nc3cc(CN4CC[C@@H](O)C4)c4ccccc4n3)c(C)c12` [Example 59, (R)—N-(4-((3-Hydroxypyrrolidin-1-yl)methyl)quinolin-2-yl)-7-isobutyryl-4-(methoxymethyl)-3-methylbenzo[b]thiophene-2-carboxamide dihydrochloride] the same measures were 0.31 nM and 67%.
The molecule `[2H]C([2H])([2H])OCc1ccc(C(C)=O)c2sc(C(=O)Nc3ccc4c(C(=O)N5CC(OC)C5)cccc4n3)c(C)c12` [Example 121, 7-Acetyl-N-(5-((3-methoxyazetidin-1-yl)carbonyl)quinolin-2-yl)-4-((^2H3)methoxymethyl)-3-methylbenzo[b]thiophene-2-carboxamide] displayed an IC50 in test [1] of 0.57 nM. Also, the inhibition in vivo at 10 mg/kg in test [2] is 59%.
For `COCc1ccc(C(C)=O)c2sc(C(=O)Nc3ccc4c(COC(=O)[C@@H](N)C(C)C)cccc4n3)c(C)c12` [Example 84, (S)-(2-(7-Acetyl-4-(methoxymethyl)-3-methylbenzo[b]thiophene-2-carboxamido)quinolin-5-yl)methyl-2-amino-3-methylbutanoate] the same measures were 7.1 nM and 92%.
`COCc1ccc(C(C)=O)c2sc(C(=O)Nc3ccc4c(C(=O)N5CCN(C)CC5)cccc4n3)c(C)c12` [Example 96, 7-Acetyl-4-(methoxymethyl)-3-methyl-N-(5-((4-methylpiperazin-1-yl)carbonyl)quinolin-2-yl)benzo[b]thiophene-2-carboxamide]: in test [2], the inhibition in vivo at 10 mg/kg was 65%.
In turn, `COCc1ccc(C(C)=O)c2sc(C(=O)Nc3cc(CN4CCOCC4)c4ccccc4n3)c(C)c12` [Example 44, 7-Acetyl-4-(methoxymethyl)-3-methyl-N-(4-(morpholinomethyl)quinolin-2-yl)benzo[b]thiophene-2-carboxamide] had an IC50 in test [1] of 2.1 nM. The inhibition in vivo at 10 mg/kg in test [2] is 104%.
For `COCc1ccc(C(C)=O)c2sc(C(=O)Nc3cc(CN4CCN(C)CC4)c4ccccc4n3)c(C)c12` [Example 125, 7-Acetyl-4-(methoxymethyl)-3-methyl-N-(4-((4-methylpiperazin-1-yl)methyl)quinolin-2-yl)benzo[b]thiophene-2-carboxamide] the same measures were 0.8 nM and 86%.
`COCc1ccc(C(C)=O)c2sc(C(=O)Nc3ccc4c(CN5CC[C@@H](F)C5)cccc4n3)c(C)c12` [Example 60, (R)-7-Acetyl-N-(5-((3-fluoropyrrolidin-1-yl)methyl)quinolin-2-yl)-4-(methoxymethyl)-3-methylbenzo[b]thiophene-2-carboxamide hydrochloride]: the inhibition in vivo at 10 mg/kg in test [2] turned out to be 107%.
`COCc1ccc(C(C)=O)c2sc(C(=O)Nc3ccc4c(CN5CC(O)C5)cccc4n3)c(C)c12` [Example 65, 7-Acetyl-N-(5-((3-hydroxyazetidin-1-yl)methyl)quinolin-2-yl)-4-(methoxymethyl)-3-methylbenzo[b]thiophene-2-carboxamide dihydrochloride] showed an IC50 in test [1] of 0.39 nM. Besides, the inhibition in vivo at 10 mg/kg in test [2] worked out at 37%.
For `COCc1ccc(C(C)=O)c2sc(C(=O)Nc3ccc4c(CO)cccc4n3)c(C)c12.Cl` [Example 77, 7-Acetyl-N-(5-(hydroxymethyl)quinolin-2-yl)-4-(methoxymethyl)-3-methylbenzo[b]thiophene-2-carboxamide hydrochloride], the “% inhibition” value in test [2] was found to be 96%.
Turning to `COCc1ccc(C(C)=O)c2sc(C(=O)Nc3cc(N(C)C)c4ccccc4n3)c(C)c12` [Example 55, 7-Acetyl-N-(4-(dimethylamino)quinolin-2-yl)-4-(methoxymethyl)-3-methylbenzo[b]thiophene-2-carboxamide], the inhibition in vivo at 10 mg/kg in test [2] is 127%.
For the molecule `[2H]C([2H])([2H])OCc1ccc(C(C)=O)c2sc(C(=O)Nc3ccc4c(CO)cccc4n3)c(C)c12` [Example 120, 7-Acetyl-N-(5-(hydroxymethyl)quinolin-2-yl)-4-((^2H3)methoxymethyl)-3-methylbenzo[b]thiophene-2-carboxamide], the inhibition in vivo at 10 mg/kg in test [2] was determined as 52%.
As to `COCc1ccc(C(C)=O)c2sc(C(=O)Nc3ccc4c(C(=O)NN5CCCC5)cccc4n3)c(C)c12` [Example 94, 2-(7-Acetyl-4-(methoxymethyl)-3-methylbenzo[b]thiophene-2-carboxamido)-N-(pyrrolidin-1-yl)quinoline-5-carboxamide], the IC50 in test [1] worked out at 1.2 nM.

In general, IC50 refers to the point on the concentration scale where inhibition reaches its midpoint. A high value points to weaker potency in that assay. As a reminder, the inhibition in vivo is the drop in the measured response relative to a control, in per cent. In general, % inhibition refers to the drop in the measured response relative to a control, in per cent.

Source of the values: patent US9464076B2, “Benzothiophene derivative” (Daiichi Sankyo Company, Limited, priority 2013, dated 2016).
